{
  "source": "patent US20210371827A1",
  "about": "“METHOD FOR PREPARING CANCER STEM CELL SPHEROIDS” (KOREA ADVANCED INSTITUTE OF SCIENCE AND TECHNOLOGY, priority 2018, published 2021)",
  "assay_in_all_cases": "Cell viability for doxorubicin (WST-1)",
  "assay_type_in_all_cases": "cell-based, human",
  "key": {"SKOV3-ssiCSC": {"tested_on": "SKOV3-ssiCSC", "conditions": "various concentrations, 24 hours", "experimental": "(§1) ssiCSC spheroids prepared from different kinds of cancer cells (SKOV3, MCF-7, Hep3B and SW480) were isolated using trypsin (TrypLE Express, Gibco), and the isolated cells were washed with D-PBS twice. The ssiCSC was plated on a 96-well plate (1×10^4 cells/well) and was cultured in a cell growth medium at 37° C. for 24 hours. Then, the medium was removed, and a new medium comprising various concentrations of doxorubicin was added to each well and cultured for 24 hours. Next, each well was washed with D-PBS and was replaced with a new cell growth medium of 100 μl, and then WST-1 cell proliferation reagent (Roche) of 10 μl was added and cultured for 4 hours. Then, the absorbance at 450 nm (standard wavelength, 600 nm) was measured using a microplate reader (Molecular Devices).\n(§2) In addition, the drug resistance of ssiCSC for doxorubicin (DOX) known as an anticancer agent was confirmed. Specifically, ssiCSC spheroids prepared by culturing on the pV4D4 surface for 8 days were isolated to single cells, and the cell was cultured on the conventional TCP surface to a 2D single layer, and then DOX at various concentrations was treated for 24 hours. […] The SW480-ssiCSC maintained drug resistance when subcultured on the TCP surface twice, and through this, it can be seen that original cancer cells were transformed into CSC-like cells (FIG. 12c)."}, "SW480-ssiCSC": {"tested_on": "SW480-ssiCSC", "conditions": "various concentrations, 24 hours", "experimental": "as §1, §2"}, "[1]": {"tested_on": "ssiCSC (SKOV3, MCF-7, Hep3B and SW480)", "conditions": "50 μM, 24 hours; compared to the 2D control group", "experimental": "as §1, §2"}},
  "data": [
    {"smiles": "COc1cccc2c1C(=O)c1c(O)c3c(c(O)c1C2=O)C[C@@](O)(C(=O)CO)C[C@@H]3O[C@H]1C[C@H](N)[C@H](O)[C@H](C)O1", "note": "[Dox, doxorubicin]", "values": [
      {"measurement": "drug resistance (cell viability)", "setting": "SKOV3-ssiCSC", "result": "complete resistance"},
      {"measurement": "drug resistance (cell viability)", "setting": "SW480-ssiCSC", "result": "complete resistance"},
      {"measurement": "drug resistance (cell viability)", "setting": "[1]", "result": "higher resistance"}
    ]}
  ]
}
